Assay: xn = mol fraction of the nth substance listed
Settings: Gas, Buoyancy - hydrostatic balance with magnetic suspension - one sinker

C=C(F)C(F)(F)F [2,3,3,3-tetrafluoro-1-propene] + CCC
Settings | mass density [kg/m3]
285.37 K, 311 kPa, x1 = 0.8116 | 14.287
285.38 K, 402.5 kPa, x1 = 0.0906 | 9.29
285.38 K, 413.6 kPa, x1 = 0.8116 | 19.58
285.39 K, 494.1 kPa, x1 = 0.0906 | 11.653
290.25 K, 583.7 kPa, x1 = 0.583 | 23.524
290.38 K, 102.2 kPa, x1 = 1 | 4.937
290.39 K, 184.5 kPa, x1 = 1 | 9.113
290.4 K, 203.9 kPa, x1 = 0.583 | 7.494
290.4 K, 308.8 kPa, x1 = 1 | 15.792
290.4 K, 421.2 kPa, x1 = 1 | 22.298
290.41 K, 103.5 kPa, x1 = 0.583 | 3.727
290.41 K, 300.6 kPa, x1 = 0.583 | 11.287
290.41 K, 403.8 kPa, x1 = 0.583 | 15.532
290.41 K, 496.6 kPa, x1 = 0.583 | 19.555
290.42 K, 102.2 kPa, x1 = 0.2546 | 2.673
290.42 K, 202.4 kPa, x1 = 0.2546 | 5.395
290.42 K, 297.9 kPa, x1 = 0.2546 | 8.09
290.42 K, 393.4 kPa, x1 = 0.2546 | 10.9
290.43 K, 490.8 kPa, x1 = 0.2546 | 13.893
290.44 K, 106.8 kPa, x1 = 0.8116 | 4.568
290.44 K, 199.7 kPa, x1 = 0.8116 | 8.728
290.44 K, 298.5 kPa, x1 = 0.8116 | 13.363
290.44 K, 586.4 kPa, x1 = 0.2546 | 16.977
290.46 K, 104.6 kPa, x1 = 0.0906 | 2.225
290.46 K, 208.6 kPa, x1 = 0.0906 | 4.52
290.46 K, 314.2 kPa, x1 = 0.0906 | 6.95
290.46 K, 380.2 kPa, x1 = 0.8116 | 17.392
290.46 K, 409.5 kPa, x1 = 0.0906 | 9.237
290.46 K, 465.4 kPa, x1 = 0.8116 | 21.81
290.46 K, 539.6 kPa, x1 = 0.0906 | 12.53
295.4 K, 101.7 kPa, x1 = 1 | 4.829
295.4 K, 196.9 kPa, x1 = 1 | 9.565
295.4 K, 400.6 kPa, x1 = 1 | 20.565
295.4 K, 600.7 kPa, x1 = 1 | 32.885
295.41 K, 305.3 kPa, x1 = 1 | 15.255
295.41 K, 510.2 kPa, x1 = 1 | 27.092
295.43 K, 213.4 kPa, x1 = 0.2546 | 5.607
295.44 K, 312 kPa, x1 = 0.2546 | 8.352
295.44 K, 420 kPa, x1 = 0.2546 | 11.485
295.44 K, 526.9 kPa, x1 = 0.2546 | 14.734
295.45 K, 511.2 kPa, x1 = 0.583 | 19.692
295.45 K, 638.2 kPa, x1 = 0.2546 | 18.298
295.46 K, 105.6 kPa, x1 = 0.583 | 3.727
295.46 K, 202.1 kPa, x1 = 0.583 | 7.273
295.46 K, 304.8 kPa, x1 = 0.583 | 11.205
295.46 K, 309.4 kPa, x1 = 0.0906 | 6.711
295.46 K, 410.8 kPa, x1 = 0.583 | 15.457
295.46 K, 411.3 kPa, x1 = 0.0906 | 9.102
295.47 K, 104.2 kPa, x1 = 0.0906 | 2.174
295.47 K, 209.6 kPa, x1 = 0.0906 | 4.463
295.47 K, 517.9 kPa, x1 = 0.0906 | 11.713
295.47 K, 624.6 kPa, x1 = 0.583 | 24.759
295.48 K, 105.6 kPa, x1 = 0.8116 | 4.43
295.48 K, 198.1 kPa, x1 = 0.8116 | 8.481
295.48 K, 304 kPa, x1 = 0.8116 | 13.338
295.48 K, 403.2 kPa, x1 = 0.8116 | 18.133
295.48 K, 629.5 kPa, x1 = 0.0906 | 14.594
295.5 K, 514.3 kPa, x1 = 0.8116 | 23.825
300.2 K, 668.8 kPa, x1 = 1 | 36.434
300.21 K, 108 kPa, x1 = 1 | 5.039
300.21 K, 218.9 kPa, x1 = 1 | 10.489
300.21 K, 324 kPa, x1 = 1 | 15.933
300.21 K, 439.4 kPa, x1 = 1 | 22.291
300.21 K, 545.8 kPa, x1 = 1 | 28.564
300.21 K, 702.5 kPa, x1 = 0.0906 | 16.204
300.23 K, 569.7 kPa, x1 = 0.8116 | 26.154
300.24 K, 599.9 kPa, x1 = 0.0906 | 13.531
300.24 K, 701 kPa, x1 = 0.583 | 27.648
300.25 K, 190.5 kPa, x1 = 0.0906 | 3.98
300.25 K, 392.5 kPa, x1 = 0.8116 | 17.228
300.25 K, 396.6 kPa, x1 = 0.0906 | 8.595
300.25 K, 489.8 kPa, x1 = 0.8116 | 22.015
300.25 K, 506.5 kPa, x1 = 0.0906 | 11.208
300.25 K, 600.3 kPa, x1 = 0.583 | 23.086
300.26 K, 102.6 kPa, x1 = 0.583 | 3.557
300.26 K, 104.5 kPa, x1 = 0.0906 | 2.152
300.26 K, 106.3 kPa, x1 = 0.8116 | 4.378
300.26 K, 200.3 kPa, x1 = 0.583 | 7.077
300.26 K, 298.9 kPa, x1 = 0.583 | 10.761
300.26 K, 300 kPa, x1 = 0.0906 | 6.389
300.26 K, 301.1 kPa, x1 = 0.8116 | 12.94
300.26 K, 506.5 kPa, x1 = 0.583 | 19.062
300.27 K, 198.3 kPa, x1 = 0.8116 | 8.334
300.27 K, 400.3 kPa, x1 = 0.583 | 14.716

From the NIST ThermoML archive (doi:10.1016/j.jct.2016.12.029)
